This is an account of results in ChEMBL document CHEMBL1201862, “PubChem BioAssay data set” (2004).

In general, IC50 refers to the concentration that inhibits the measured activity by half. By AC50 is commonly meant the concentration at which the activity in the assay is half-maximal. What is called EC50 is the concentration that produces a half-maximal response. By CC50 is commonly meant the concentration that lowers cell viability or growth by half.

In one assay the target is T1, Protein Tat (Human immunodeficiency virus type 1 group M subtype B (isolate HXB2)(HIV-1), UniProt P04608).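 Also: tat binding to TAR RNA read out by fluorescence polarization.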
T1 sequence (P04608 whole entry): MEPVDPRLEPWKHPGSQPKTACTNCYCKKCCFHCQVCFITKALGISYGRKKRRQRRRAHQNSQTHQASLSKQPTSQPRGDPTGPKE
The class given is functional.

A short description of assay [1]: activation of miR-122 Renilla sensor silencing – cell-based, Huh7 psiCHECK-miR122, Renilla luciferase, cherry-picked, dose response (AID 651956).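 Also: huh7 hepatoma cells stably carrying a psiCHECK-2 miR-122 sensor plasmid; renilla luciferase signal reporting endogenous miR-122 activity after 48 h compound exposure.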 It counts as functional.
The nature of assay [2]: general mammalian cell viability loss – inhibitor set, cherry-pick, set 2, cytotoxicity control for miR-122 modulator project, dose response (AID 720697). It counts as functional, cell-based.
A short description of assay [3]: reduced cellular PGC1a acetyl-lysine signal – cell-based, cherry-picked samples, dose response (AID 720514).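 Also: potency may reflect raised or lowered acetylation signal.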 The class given is functional.
Assay [4] in a line: NIH-3T3 fibroblast cytotoxicity, dose response, cytotoxicity control, cell-based, fluorescence, Alamar Blue, secondary assay (AID 2327).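 Also: NIH-3T3 mouse fibroblasts cultured with fluconazole at 8 µg/mL.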 It counts as functional.
The test system of assay [5] is Streptococcus sp. 'group A'. Kind of assay: Streptococcus pyogenes SK(-)GAS viability under kanamycin – luminescence, BacTiterGlo, confirmation, counter-screen for streptokinase expression inhibitor project, dose response (AID 1900). The class given is functional, organism-based. Background: A counterscreen serves to expose hits that act by an unwanted route or on another target.

Assay [6] in a line: cells. The class given is functional, cell-based.
Assay [7] has as its target T2, Heat shock factor protein 1 (Mus musculus, UniProt P38532).
T2 sequence (P38532 whole entry): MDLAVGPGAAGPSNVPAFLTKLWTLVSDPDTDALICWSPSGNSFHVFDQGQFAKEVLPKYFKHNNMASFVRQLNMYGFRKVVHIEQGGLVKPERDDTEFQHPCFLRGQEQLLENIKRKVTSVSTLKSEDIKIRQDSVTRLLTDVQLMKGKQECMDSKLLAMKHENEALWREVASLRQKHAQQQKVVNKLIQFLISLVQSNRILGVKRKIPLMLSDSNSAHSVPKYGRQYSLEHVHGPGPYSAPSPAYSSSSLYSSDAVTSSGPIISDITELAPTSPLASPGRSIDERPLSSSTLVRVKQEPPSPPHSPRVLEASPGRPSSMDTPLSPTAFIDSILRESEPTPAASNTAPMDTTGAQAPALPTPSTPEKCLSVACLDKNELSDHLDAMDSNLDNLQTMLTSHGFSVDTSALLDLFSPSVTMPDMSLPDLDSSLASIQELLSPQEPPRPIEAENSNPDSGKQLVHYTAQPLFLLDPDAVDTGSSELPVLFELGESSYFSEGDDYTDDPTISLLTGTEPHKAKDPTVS
Kind of assay: decrease of HSF1-responsive luciferase luminescence – cell-based, NIH3T3, dose retest, confirmation (AID 2382).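 Also: NIH3T3 fibroblasts with HSF1-driven luciferase reporter stressed by proteasome inhibitor MG132; luminescence from HSF1-driven luciferase expression after 8 hours of MG132 stress.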 It counts as functional.

Assay [8] in a line: fluconazole-exposed Candida albicans growth modulators – fluorescence, retest, confirmation (AID 2467). It counts as functional, cell-based.
The nature of assay [9]: cells. The class given is functional, cell-based. This is another data set of the same source.
Another assay relates to Streptococcus. Kind of assay: GAS UMAA2166 growth inhibition – luminescence, BacTiterGlo, counter-screen for streptokinase expression inhibitor project, dose response (AID 1915).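 Also: potency for reduction of bacterial viability or growth.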 It counts as functional, organism-based.
The target of a further assay is Nonstructural protein 1 (Influenza A virus, UniProt Q194T2). It counts as functional, Influenza A virus (A/California/07/2009(H1N1)).
Assay [10] deals with Heat shock protein HSP 90-alpha (Homo sapiens, UniProt P07900). The class given is functional, organism-based.
The test system of another assay is Vero. Kind of assay: cells. It counts as functional. Particulars: Chlorocebus sabaeus.
Another assay has as its target T3, Caspase-6 (Homo sapiens, UniProt P55212).
T3 sequence (P55212 whole entry): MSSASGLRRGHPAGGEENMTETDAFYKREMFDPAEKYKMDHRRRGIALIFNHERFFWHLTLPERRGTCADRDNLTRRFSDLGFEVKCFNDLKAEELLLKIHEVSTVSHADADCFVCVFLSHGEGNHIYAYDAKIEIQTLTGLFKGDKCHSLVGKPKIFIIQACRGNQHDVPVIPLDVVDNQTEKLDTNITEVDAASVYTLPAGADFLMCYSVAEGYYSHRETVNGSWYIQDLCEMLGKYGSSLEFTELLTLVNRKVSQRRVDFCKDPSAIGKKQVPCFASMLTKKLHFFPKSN
Kind of assay: inhibition of CASP6 peptide cleavage – biochemical, VEID-R110 fluorescence, cherry-pick, dose response (AID 720632).

Assay [11] addresses T4, Histone-lysine N-methyltransferase NSD2 (Homo sapiens, UniProt O96028).
T4 sequence (O96028 whole entry): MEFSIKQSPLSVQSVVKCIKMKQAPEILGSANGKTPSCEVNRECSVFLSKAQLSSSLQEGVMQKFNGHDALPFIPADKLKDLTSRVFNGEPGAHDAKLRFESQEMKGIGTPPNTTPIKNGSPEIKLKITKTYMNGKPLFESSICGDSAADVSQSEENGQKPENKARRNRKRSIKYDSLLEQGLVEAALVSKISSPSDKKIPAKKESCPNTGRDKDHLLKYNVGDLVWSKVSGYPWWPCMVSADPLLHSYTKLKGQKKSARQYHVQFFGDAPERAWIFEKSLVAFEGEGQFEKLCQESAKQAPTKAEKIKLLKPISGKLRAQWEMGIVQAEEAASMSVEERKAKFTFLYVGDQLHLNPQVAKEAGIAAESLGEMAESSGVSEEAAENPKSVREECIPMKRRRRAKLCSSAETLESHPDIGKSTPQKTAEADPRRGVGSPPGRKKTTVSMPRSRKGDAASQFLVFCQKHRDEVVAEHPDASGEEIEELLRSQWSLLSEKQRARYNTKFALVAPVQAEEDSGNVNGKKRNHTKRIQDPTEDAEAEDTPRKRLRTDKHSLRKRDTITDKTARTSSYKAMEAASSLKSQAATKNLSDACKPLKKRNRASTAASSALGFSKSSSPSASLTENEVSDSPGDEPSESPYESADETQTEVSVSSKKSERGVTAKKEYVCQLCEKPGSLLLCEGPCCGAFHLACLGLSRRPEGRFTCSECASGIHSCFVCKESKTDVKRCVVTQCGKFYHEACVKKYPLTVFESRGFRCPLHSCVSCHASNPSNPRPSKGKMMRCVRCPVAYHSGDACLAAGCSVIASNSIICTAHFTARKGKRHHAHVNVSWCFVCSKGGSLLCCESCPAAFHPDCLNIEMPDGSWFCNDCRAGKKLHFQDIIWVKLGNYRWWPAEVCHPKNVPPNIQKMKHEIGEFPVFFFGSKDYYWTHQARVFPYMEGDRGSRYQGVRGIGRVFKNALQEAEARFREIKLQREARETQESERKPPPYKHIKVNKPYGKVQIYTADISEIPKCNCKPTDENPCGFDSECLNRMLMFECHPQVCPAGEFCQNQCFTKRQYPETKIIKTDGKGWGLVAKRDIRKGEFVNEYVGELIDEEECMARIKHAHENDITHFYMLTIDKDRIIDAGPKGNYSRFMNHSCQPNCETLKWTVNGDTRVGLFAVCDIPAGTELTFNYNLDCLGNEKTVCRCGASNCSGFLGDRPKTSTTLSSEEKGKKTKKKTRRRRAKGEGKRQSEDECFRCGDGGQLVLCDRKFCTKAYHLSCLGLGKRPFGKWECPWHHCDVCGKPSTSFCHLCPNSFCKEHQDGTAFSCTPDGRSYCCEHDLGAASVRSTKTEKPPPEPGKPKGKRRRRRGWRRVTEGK
It counts as biochemical.

The nature of assay [12]: reduction of Shn3 3'UTR-driven luciferase in osteoblasts – cell-based, Clone20 osteoblasts, firefly luciferase, cherry-picked, dose response (AID 624132).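 Also: firefly luciferase luminescence from reporter carrying the Shn3 3'UTR in osteoblasts.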 The class given is functional.
A short description of assay [13]: loss of viability in HepG2 cells – cell-based, CellTiter-Glo, cherry-picked, cytotoxicity control for Shn3 inhibitor project, dose response (AID 624134). It counts as functional. (In ATP-based viability assays light output follows the ATP content of the culture.)
A short description of assay [14]: non-specific 3'UTR reporter inhibition in Clone20-Shn3RL – cell-based, Renilla luciferase, cherry-picked, counter-screen for Shn3 inhibitor project, dose response (AID 624133). It counts as functional.
The nature of assay [15]: Fluorescence-based cell-based high throughput dose response assay for inhibitors of the interaction of nucleotide-binding oligomerization domain containing 2 (NOD2) and the receptor-interacting serine-threonine kinase 2 (RIPK2). The class given is functional, Homo sapiens. Particulars: Homo sapiens.
A short description of assay [16]: viability loss in HeLa cells – cytotoxicity control for MgcRacGAP inhibitor project, dose response (AID 624300). It counts as functional.
The target of assay [17] is T5, Rac GTPase-activating protein 1 (Homo sapiens, UniProt Q9H0H5).
T5 sequence (Q9H0H5 whole entry): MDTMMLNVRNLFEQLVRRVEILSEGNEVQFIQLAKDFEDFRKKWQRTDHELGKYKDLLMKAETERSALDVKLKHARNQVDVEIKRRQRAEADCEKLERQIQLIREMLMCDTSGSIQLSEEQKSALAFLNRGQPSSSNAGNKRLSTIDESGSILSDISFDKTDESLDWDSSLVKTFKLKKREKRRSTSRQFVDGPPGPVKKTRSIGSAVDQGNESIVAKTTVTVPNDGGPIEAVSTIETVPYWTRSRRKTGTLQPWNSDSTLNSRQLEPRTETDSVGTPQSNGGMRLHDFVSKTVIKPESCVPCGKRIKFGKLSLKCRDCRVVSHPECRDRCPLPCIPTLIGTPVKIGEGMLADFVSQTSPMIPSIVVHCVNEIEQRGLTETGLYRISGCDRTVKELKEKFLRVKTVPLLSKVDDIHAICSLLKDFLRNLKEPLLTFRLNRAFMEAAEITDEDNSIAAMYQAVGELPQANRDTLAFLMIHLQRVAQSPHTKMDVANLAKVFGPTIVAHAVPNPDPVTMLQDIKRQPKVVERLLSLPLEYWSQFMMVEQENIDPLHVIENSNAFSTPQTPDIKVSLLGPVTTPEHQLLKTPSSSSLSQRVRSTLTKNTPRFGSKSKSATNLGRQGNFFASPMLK
Kind of assay: blockers of MgcRacGAP-driven Rac1 GTP hydrolysis – biochemical, ADP Hunter fluorescence, primary and confirmatory, confirmation (AID 624330). It counts as functional.

For the next assay, the target named is Paired box protein Pax-8 (Homo sapiens, UniProt Q06710). Kind of assay: PAX8 transcriptional activity inhibition in RMG-I – RMG-I cells, luciferase, cherry-pick, dose response (AID 687027).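 Also: luciferase reporter driven by Pax8 target thyroperoxidase promoter measured by SteadyGlo luminescence.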 It counts as functional, cell-based.
The nature of assay [18]: A549 cell cytotoxicity, dose response, cytotoxicity control, plate reader, cherry-pick, antagonist series (AID 743412). It counts as functional, cell-based.
Assay [19] is described as follows: toxicity toward HepG2 liver cells – cell-based, plate reader, cherry-pick, antagonist series, cytotoxicity control, dose response (AID 743416). The class given is functional.
Assay [20] can be described thus: blockers of bursicon-stimulated LGR2 cAMP reporter – cell-based, HEK293, CRE-luciferase reporter, cherry pick, set 2, dose response (AID 743343).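 Also: transfected cells were stimulated with diluted bursicon conditioned medium after compound addition.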 It counts as functional.
A short description of assay [21]: blockade of melanocortin 4 receptor signaling – cell-based, plate reader, cherry pick, counter-screen for LGR2 antagonist project, dose response (AID 743444).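 Also: transfected HEK 293 cells stimulated with alpha-MSH peptide; potency of inhibitors of the alpha-MSH evoked signal.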 It counts as functional.
Assay [22] is described as follows: viability loss in HEK293 cells – cell-based, plate reader, cherry-picked samples, cytotoxicity control, dose response (AID 743446). It counts as functional.

Structures are written as SMILES. Activity calls are given as the source filed them.

Chain of Paired box protein Pax-8 (Q06710 whole entry): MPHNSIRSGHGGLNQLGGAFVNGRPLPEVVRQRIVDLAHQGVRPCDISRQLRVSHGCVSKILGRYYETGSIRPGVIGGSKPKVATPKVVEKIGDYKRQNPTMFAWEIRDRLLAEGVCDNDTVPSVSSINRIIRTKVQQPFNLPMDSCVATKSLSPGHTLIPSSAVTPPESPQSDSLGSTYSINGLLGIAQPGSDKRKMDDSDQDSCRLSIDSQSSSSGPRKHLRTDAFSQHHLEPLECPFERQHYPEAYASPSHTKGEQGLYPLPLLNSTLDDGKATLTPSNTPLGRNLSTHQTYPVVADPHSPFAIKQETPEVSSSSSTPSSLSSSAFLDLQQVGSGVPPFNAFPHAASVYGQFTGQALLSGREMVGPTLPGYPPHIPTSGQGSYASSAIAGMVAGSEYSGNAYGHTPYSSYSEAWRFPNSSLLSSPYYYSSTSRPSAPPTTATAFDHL
Chain of Nonstructural protein 1 (Q194T2 whole entry): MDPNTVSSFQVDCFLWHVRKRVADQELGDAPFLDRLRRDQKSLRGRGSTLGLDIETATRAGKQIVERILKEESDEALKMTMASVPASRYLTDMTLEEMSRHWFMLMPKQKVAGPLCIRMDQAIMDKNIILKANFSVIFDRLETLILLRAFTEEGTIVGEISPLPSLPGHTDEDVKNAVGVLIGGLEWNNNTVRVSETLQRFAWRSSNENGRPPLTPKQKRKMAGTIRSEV

For `CCOc1ccc2[nH]c(=O)c(CN(Cc3ccco3)C(=O)c3ccc(Br)cc3)cc2c1`, at Protein Tat, the IC50 was > 100 µM (active).
For the molecule `C[C@@H]1CCCCO[C@H](CN(C)CC2CCCCC2)[C@H](C)CN([C@H](C)CO)C(=O)c2cc(NC(=O)Nc3ccc4c(c3)OCO4)ccc2O1`, the AC50 in assay [1] is 16.2 µM (active); in [2], 4.39 µM (active).
Regarding `COc1cccc(CN2C[C@@H]3N[C@H](C2)[C@@H]3c2ccc(-c3ccccc3OC)cc2)c1`, the AC50 in assay [3] was 28.5 µM (active).
Consider `O=C(CSc1nc2cc(Cl)ccc2s1)NCC1CCCO1` (stereo unspecified), for which the AC50 in [3] is 30.5 µM (active).
Regarding `COc1ccccc1N=Nc1ccc(O)c2ncccc12`, the EC50 in assay [4] was > 160 µM (inactive); in assay [5], 1.17 µM (active); in “cells [6]”, 102 µM (active); in assay [7], 2.29 µM (active); in assay [8], 1.28 µM (active); in “cells [9]”, 38.7 µM (active). Further, the EC50 in the assay on Streptococcus is 10.3 µM (active). On Nonstructural protein 1, the IC50 was 12.4 µM (active). Moreover, the AC50 in assay [10] was 3.68 µM (active); on Caspase-6, 34.5 µM (active); in assay [11], 11.8 µM (active). Besides, in the assay on Vero, the CC50 was 12.2 µM (active).
`CCC1CN2CCc3cc(OC)c(OC)cc3C2CC1CC1NCCc2c1[nH]c1ccc(O)cc21` (stereo unspecified): the AC50 in [12] is < 0.26 µM (active); in [13], 18 µM (active); in assay [14], 0.658 µM (active); on Paired box protein Pax-8 it was < 0.26 µM (active); in [3], 0.471 µM (active); in assay [18], 0.075 µM (active). In addition, the AC50 in assay [19] is 0.601 µM (active); in assay [20] it was 0.219 µM (active); in [21] it was 0.209 µM (active); in assay [22] it was 0.153 µM (active). Also, the figures for the IC50 in [15] and in assay [17] were 49.8 µM (inactive) and 70.2 µM (active), respectively. In assay [16], the CC50 was 1.61 µM (active).
Take `[O-][n+]1c2c([n+]([O-])c3cc(Br)ccc31)CCC2`: at Protein Tat, the IC50 was 8.44 µM (inconclusive).
